Experimental data from the supplement of paper PMC4862054.
Values joined by “and” are separate entries in the source; they are usually repeats but may differ in a detail not shown here. Identical values can stand only once.

Tests used:
[1] = test system: BT-549; experiment: normalised viability (% of control), CellTiter-Blue; higher = more viable cells (about 100 = DMSO control); conditions: incubation time: 72 h
Description: (§1)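 DSRT, CellTiter-Blue viability, 72 h incubation. Signal is normalised to DMSO and benzethonium chloride controls. Value is the normalised response at dose 3.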

[2] = test system: MFM-223; experiment: as above; conditions: incubation time: 72 h
Description: as §1

[3] = test system: MDA-MB-468; experiment: as above; conditions: 100 nM; incubation time: 72 h
Description: as §1

[4] = test system: MDA-MB-231; experiment: drug sensitivity score (DSS), CellTiter-Blue viability (DSS (AUC-based score)); higher = stronger viability inhibition; extreme values may be limits of the assay; conditions: incubation time: 72 h
Description: (§2)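 DSRT with the CellTiter-Blue (resazurin reduction) viability readout, fluorescence 560/590 nm, 72 h incubation. Plates were normalised to DMSO and benzethonium chloride controls. DSS is computed from the area under the fitted dose-response curve (5 or 9 concentrations).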

[5] = test system: MFM-223; experiment: as above; conditions: incubation time: 72 h
Description: as §2

[6] = test system: BT-549; experiment: normalised viability (% of control), CellTiter-Blue; higher = more viable cells (about 100 = DMSO control); conditions: incubation time: 72 h; remark: listed apart in the source
Summary of the method: (§3)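 Each value is normalised viability at a single listed concentration of the series. Breast cancer cell lines in 384-well plates were incubated 72 h with compound and read by CellTiter-Blue fluorescence at 560/590 nm, with vehicle set to 100 and a positive kill control to 0 on every plate.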

[7] = test system: MDA-MB-231; experiment: as above; conditions: incubation time: 72 h
Summary of the method: as §3

[8] = test system: Hs578T; experiment: as above; conditions: incubation time: 72 h
Summary of the method: as §3

[9] = test system: HCC1937; experiment: as above; conditions: incubation time: 72 h
Summary of the method: as §3

[10] = test system: HDQ-P1; experiment: as above; conditions: incubation time: 72 h
Summary of the method: as §3

[11] = test system: SK-BR-3; experiment: as above; conditions: incubation time: 72 h
Summary of the method: as §3

[12] = test system: CAL-148; experiment: as above; conditions: incubation time: 72 h
Summary of the method: as §3

[13] = test system: MDA-MB-436; experiment: as above; conditions: incubation time: 72 h
Summary of the method: as §3

[14] = test system: MFM-223; experiment: as above; conditions: incubation time: 72 h; remark: listed apart in the source
Summary of the method: as §3

[15] = test system: CAL-120; experiment: as above; conditions: incubation time: 72 h
Summary of the method: as §3

[16] = test system: BT-474; experiment: as above; conditions: incubation time: 72 h
Summary of the method: as §3

[17] = test system: MDA-MB-453; experiment: as above; conditions: incubation time: 72 h
Summary of the method: as §3

[18] = test system: HCC1143; experiment: as above; conditions: incubation time: 72 h
Summary of the method: as §3

[19] = test system: MDA-MB-468; experiment: as above; conditions: incubation time: 72 h
Summary of the method: as §3

[20] = test system: HCC1599; experiment: as above; conditions: incubation time: 72 h
Summary of the method: as §3

[21] = test system: CAL-51; experiment: as above; conditions: incubation time: 72 h
Summary of the method: as §3

[22] = test system: DU-4475; experiment: as above; conditions: incubation time: 72 h
Summary of the method: as §3

[23] = test system: CAL-85-1; experiment: as above; conditions: incubation time: 72 h
Summary of the method: as §3

CCC/C=C/C=C/C(=O)O[C@H]1/C(=C/C(=O)OC)C[C@H]2C[C@H]([C@@H](C)O)OC(=O)C[C@H](O)C[C@@H]3C[C@H](OC(C)=O)C(C)(C)[C@](O)(C[C@@H]4C/C(=C/C(=O)OC)C[C@H](/C=C/C(C)(C)[C@]1(O)O2)O4)O3 [Bryostatin 1]
Conditions	normalised viability [%]
[1], 1 nM	94.8
[2], 1 nM	98.7
[6], 0.1 nM	100
[6], 10 nM	87.9
[6], 100 nM	100
[7], 10 nM	101
[7], 1000 nM	82.8
[7], 10000 nM	90.2
[8], 0.1 nM	95.1
[8], 10 nM	97
[8], 100 nM	106
[9], 10 nM	108
[9], 1000 nM	80.2
[9], 10000 nM	103
[10], 0.03 nM	104
[10], 0.3 nM	106
[10], 1 nM	107
[11], 10 nM	95
[11], 1000 nM	67
[11], 10000 nM	61.4
[12], 0.03 nM	91.6
[12], 0.3 nM	101
[12], 1 nM	88
[13], 0.1 nM	110
[13], 10 nM	103
[13], 100 nM	127
[14], 0.1 nM	97
[14], 10 nM	91.2
[14], 100 nM	94.6
[15], 0.1 nM	90.7
[15], 10 nM	89.1
[15], 100 nM	93.4
[16], 10 nM	109
[16], 1000 nM	109
[16], 10000 nM	102
[17], 0.03 nM	105
[17], 0.3 nM	95
[17], 1 nM	94.8
[18], 0.1 nM	85.3
[18], 10 nM	80.5
[18], 100 nM	80.5
[19], 10 nM	99.6
[19], 1000 nM	104
[19], 10000 nM	94.4
[20], 0.1 nM	112
[20], 10 nM	116
[20], 100 nM	115
[21], 0.03 nM	108
[21], 0.3 nM	104
[21], 1 nM	108
[22], 0.03 nM	92.7
[22], 0.3 nM	79.2
[22], 1 nM	91.2
[23], 0.03 nM	95.3
[23], 0.3 nM	107
[23], 1 nM	117

Conditions	drug sensitivity score	normalised viability [%]
[3]	–	101
[4]	0	–
[5]	0	–

CO[C@@H](C(=O)N1Cc2[nH]nc(NC(=O)c3ccc(N4CCN(C)CC4)cc3)c2C1)c1ccccc1 [Danusertib]
Conditions	normalised viability [%]
[1], 100 nM	102
[2], 100 nM	44
[6], 10 nM	97.9
[6], 1000 nM	64.3
[6], 10000 nM	16.2
[7], 10 nM	87.9
[7], 1000 nM	56.7
[7], 10000 nM	19.2
[8], 10 nM	95.4
[8], 1000 nM	59.3
[8], 10000 nM	23.9
[9], 10 nM	99.8
[9], 1000 nM	41.7
[9], 10000 nM	41
[10], 3 nM	89.9
[10], 30 nM	90.7
[10], 100 nM	72.4
[11], 10 nM	81
[11], 1000 nM	73.5
[11], 10000 nM	77
[12], 3 nM	92.5
[12], 30 nM	85.5
[12], 100 nM	29.7
[13], 10 nM	89.7
[13], 1000 nM	72
[13], 10000 nM	60.9
[14], 10 nM	71.3
[14], 1000 nM	36.9
[14], 10000 nM	55.4
[15], 10 nM	80.7
[15], 1000 nM	46
[15], 10000 nM	8.24
[16], 10 nM	105
[16], 1000 nM	88.3
[16], 10000 nM	96.5
[17], 3 nM	101
[17], 30 nM	62.1
[17], 100 nM	47.9
[18], 10 nM	78.2
[18], 1000 nM	61.8
[18], 10000 nM	31.3
[19], 10 nM	107
[19], 1000 nM	36.2
[19], 10000 nM	48.1
[20], 10 nM	98.4
[20], 1000 nM	74.7
[20], 10000 nM	73.1
[21], 3 nM	116
[21], 30 nM	116
[21], 100 nM	74.3
[22], 3 nM	89.8
[22], 30 nM	88.2
[22], 100 nM	70.6
[23], 3 nM	85.8
[23], 30 nM	82.8
[23], 100 nM	76.2

Conditions	drug sensitivity score	normalised viability [%]
[3]	–	59.4
[4]	11	–
[5]	0	–

Cc1nc(Nc2ncc(C(=O)Nc3c(C)cccc3Cl)s2)cc(N2CCN(CCO)CC2)n1 [Dasatinib]
Conditions	normalised viability
[1], 10 nM	91.5% and 93.8%
[2], 10 nM	91.8% and 88%
[6], 1 nM	102% and 95.4%
[6], 100 nM	62.5% and 51.1%
[6], 1000 nM	38.9% and 35.7%
[7], 1 nM	87.5% and 81.5%
[7], 100 nM	53% and 40.2%
[7], 1000 nM	40.5% and 34%
[8], 1 nM	108% and 102%
[8], 100 nM	55.5% and 45.7%
[8], 1000 nM	27% and 24.8%
[9], 1 nM	95.7% and 92.3%
[9], 100 nM	53.9% and 78%
[10], 0.3 nM	106% and 111%
[10], 3 nM	83.8% and 84.8%
[11], 1 nM	109% and 92.9%
[11], 100 nM	112% and 98.6%
[12], 0.3 nM	97.9% and 80.8%
[12], 3 nM	110% and 85.8%
[12], 10 nM	98.1% and 88.5%
[13], 1 nM	91.2% and 105%
[13], 100 nM	64.8% and 56.8%
[13], 1000 nM	40.4% and 30.4%
[14], 1 nM	96.2% and 96.8%
[14], 100 nM	84.3% and 90.4%
[14], 1000 nM	70.1% and 72%
[15], 1 nM	93.5% and 85.7%
[15], 100 nM	46% and 38.3%
[15], 1000 nM	26.6% and 22.4%
[16], 1 nM	126% and 102%
[16], 100 nM	113% and 96.2%
[16], 1000 nM	97.9% and 95.4%
[17], 0.3 nM	121% and 115%
[17], 3 nM	96.6% and 99.2%
[17], 10 nM	97.7% and 104%
[18], 1 nM	100% and 78.6%
[18], 100 nM	65.4% and 55%
[18], 1000 nM	48.9% and 37.6%
[19], 1 nM	114% and 109%
[19], 100 nM	105% and 100%
[19], 1000 nM	94.6% and 90.4%
[20], 1 nM	109% and 107%
[20], 100 nM	103% and 114%
[20], 1000 nM	101% and 100%
[21], 0.3 nM	106% and 112%
[21], 3 nM	92.3% and 93.9%
[21], 10 nM	79.3% and 84.4%
[22], 0.3 nM	107% and 83.4%
[22], 3 nM	101% and 97.1%
[22], 10 nM	101% and 95.7%
[23], 0.3 nM	97.8% and 95.5%
[23], 3 nM	84.2% and 87.7%
[23], 10 nM	87.9% and 92.9%

Conditions	drug sensitivity score
[4]	9.89 and 15.2
[5]	2.5 and 1.76
